Measurements published in patent US20260209260A1, “VECTORIZED NHC IRIDIUM(III) COMPLEXES AND USE THEREOF IN PHOTODYNAMIC THERAPY AND/OR DIAGNOSTIC” (CENTRE NATIONAL DE LA RECHERCHE SCIENTIFIQUE, priority 2022, published 2026).
Several values for one entry are separate records, joined by “and”; a condition that tells them apart may be missing. Equal entries are not always repeated. Where two headings read alike, the source gives them in different places.

Experiments:
[1] = Lipophilicity: octanol-water partition coefficient, shake-flask method
Experimental: The octanol-water partition coefficients (P) of all the complexes were determined using a shake-flask method^8. Water (100 mL, distilled after milli-Q purification) and n-octanol (100 mL, Sigma Aldrich, ACS spectrophotometric grade, ≥99%) were shaken together for 24 h to allow saturation of both phases. Stock solutions of the compounds ([…]) were prepared in the aqueous phase. Aliquots (2 mL) of each of these stock solutions were then added to an equal volume of the n-octanol phase. The resultant biphasic solution was mixed for 15 min and then centrifuged (3000 tr/min, 5 min) to separate the phases. The concentrations of the complex in the organic and aqueous phases were then determined using UV absorbance spectroscopy (260 nm). The blank is the water saturated with n-octanol. Log P was defined as logarithm of the ratio of the concentrations of the complex in the organic and aqueous phases (values reported are the means of at least three separated determinations).
The Log P values have been determined by a classical shake-flask method.

[2] = UV/Vis absorption spectra; type: physicochemical; conditions: room temperature; for maximum absorption, lowest-lying bands in the visible region over 360 nm: CH2Cl2 or CH2Cl2/MeOH (1:1); for λmax (nm) ε (M^−1 · cm^−1): air-saturated CH2Cl2 or CH2Cl2/MeOH (1:1), 50 μM, ε in brackets, sh = shoulder
Experimental: UV/Vis absorption spectra were recorded at RT on solutions contained in quartz cuvettes (optical pathlength 1 cm, Hellma®) with a PerkinElmer® UV/VIS/NIR spectrophotometer Lambda 950 and a PerkinElmer® detector UV/VIS/NIR Accessory 2D Detector Module.

T24 bladder cancer cells = test: Cell viability assay (MTT), dark and blue light; type: cell-based, Human
Experimental: (§1) Cells were grown in humidified incubators at 37° C. in 5% CO2. Murine MC3T3 osteoblast and NIH-3T3 fibroblast cells-used as non-tumor cell models-were cultured in a-MEM medium and DMEM medium supplemented with 10% fetal bovine serum (FBS) and 1% Penicillin/Streptomycin (P/S) antibiotics, respectively. Human T24 bladder, MGHU3 bladder, Scaber bladder, A549 lung, MCF7 breast, MiaPaCa2 pancreas cancer cells were cultured in DMEM medium supplemented with 10% FBS and 1% P/S antibiotics. […] Human Hela cervix and HepG2 liver cancer cells were cultured EMEM medium supplemented with 10% FBS and 1% P/S antibiotics.
(§2) MTT reagent (3-(4,5-dimethylthiazol-2-yl)-2,5-diphenyltetrazolium bromide) was used to determine cell death as originally described by Mosmann. Briefly, cells were seeded from 5,000 to 10,000 cells/well in 24-well plates (1 mL) depending on the cell type and allowed to attach overnight. The complexes were prepared in DMSO. The concentration of the complexes was calculated based on the elemental composition of the complexes determined by the elemental analyses. All cell viability experiments were carried out with a fixed concentration of 0.1% (v/v) DMSO. After 72 h of treatment, cells were incubated at 37° C. and 5% CO2 with 25 μL of MTT solution (5 mg/ml; Sigma-Aldrich) in 24-well plates for 3 to 4 h. After solubilization with 500 μL of DMSO, formazan was quantified spectrophotometrically with a microplate reader at 570 nm absorbance (ClarioSTAR, BMG LabTech). […] All the results were calculated from data obtained in at least three independent experiments performed in triplicate.
(§3) Two sets of experiments were conducted in parallel for each complex to be studied:
(§4) 1. The cells were incubated with the different complexes (in the dark) for 72 h.
(§5) 2. The cells were incubated for 8 h with the different complexes (in the dark), then irradiated for 10 min, followed by an incubation in the dark up to 72 h.

[3] = Luminescence emission spectra and quantum yield; type: physicochemical; conditions: for ΦP emission phosphorescence quantum yield: room temperature, reference POPOP in hexane or rhodamine B in ethanol
Experimental: Fluorescence and phosphorescence emission spectra were obtained with a HORIBA JOBIN YVON, fluromax-4 and spectrofluorometer.
Luminescence quantum yields were measured according to the method of Demas and Crosby, on solution samples at RT. The quantum yield is defined as: […]
Where ΦP is the quantum yield of the sample, ΦR is the know quantum yield of the reference standard. […].
The luminescence spectra of vectorized iridium(III) complexes were determined in CH2Cl2 at room temperature (Table 3).

[4] = Emission lifetime measurement; type: physicochemical
Experimental: Fluorescence lifetime measurements were performed by an Edinburgh FLS920 spectrofluorimeter equipped with a TCC900 card for data acquisition in time-correlated single-photon counting experiments (0.5 ns time resolution) with a D2 lamp and an LDH—P-C-405 pulsed diode laser. The estimated experimental error is 2 nm on the band maximum (5% on the lifetime, 10% on the fluorescence quantum yield).
The emission lifetimes of biotin-vectorized complexes (I-a) to (I-l) range from 138 ns to 411 ns, among them, the lifetime of biotin-vectorized complexes (I-c), (I-e), (I-k) are 411, 224, and 322 ns respectively. The emission lifetimes of FTS-vectorized complexes (II-a) to (II-l) range from 167 ns to 486 ns, among them, the lifetime of FTS-vectorized complexes (II-c) and (II-k) are 319 and 486 ns respectively. The emission lifetimes of PSMA-vectorized complexes (III-a) to (III-l) are in the range of 159-649 ns, among them, the lifetime of complexes (III-a) and (III-k) were 248 and 649 ns, respectively. The emission lifetimes of Fc-vectorized complexes (IV-a) to (IV-l) are in the range of 178-228 ns.

[5] = test system: NIH-3T3 fibroblast cells (non-tumor); test: Cell viability assay (MTT), dark and blue light; type: cell-based, Murine; conditions: for Photosensitizing index (PI): NIH-3T3, dark vs blue light
Experimental: as §1, §2, §3, §4, §5

[6] = test system: PC-3 prostate cancer cells (PSMA-negative); test: Cell viability assay (MTT), dark and blue light; type: cell-based, Human; conditions: for GI50: read-out: GI50; for Photosensitizing index (PI): PC3, dark vs blue light
Experimental: Cells were grown in humidified incubators at 37° C. in 5% CO2. Murine MC3T3 osteoblast and NIH-3T3 fibroblast cells-used as non-tumor cell models-were cultured in a-MEM medium and DMEM medium supplemented with 10% fetal bovine serum (FBS) and 1% Penicillin/Streptomycin (P/S) antibiotics, respectively. Human T24 bladder, MGHU3 bladder, Scaber bladder, A549 lung, MCF7 breast, MiaPaCa2 pancreas cancer cells were cultured in DMEM medium supplemented with 10% FBS and 1% P/S antibiotics. Human ASPC-1 pancreas, PC-3 prostate, DU-145 prostate, C4-2B prostate and 22rV1 prostate cancer cells were cultured in RPMI medium supplemented with 10% FBS and 1% P/S antibiotics. Human Hela cervix and HepG2 liver cancer cells were cultured EMEM medium supplemented with 10% FBS and 1% P/S antibiotics.
as §2
Irradiation was conducted using an in-house device, a series of blue light LEDs selected according to the absorption spectra of the compounds at 458 nm wavelength with an emitted power of 9.6 Watts. The light fluence was measured at 458 nm with an optical power meter Thorlabs PM100A at different distances between the cell layer and the light source (5 and 10 cm).
as §3, §4, §5

[7] = n-octanol/water, shake-flask, mean of at least three determinations
[8] = NIH-3T3, blue light, read-out: GI50

| SMILES | Log P [1, 7] | maximum absorption, lowest-lying bands in the visible region over 360 nm [2] | λmax (nm) ε (M^−1 · cm^−1) [2] | ΦP emission phosphorescence quantum yield [3] [%] | τ1 emission lifetime [4] [ns] | SI (vs NIH-3T3) ([6]; PC3, blue light) | GI50 ([6]; PC3, blue light) [µM] | SI (vs NIH-3T3) ([6]; PC3, dark) | Photosensitizing index (PI) [6] | GI50 [5, 8] [µM] | Photosensitizing index (PI) [5] | GI50 ([5]; NIH-3T3, dark, read-out: GI50) [µM] | Log P [1] | GI50 ([6]; PC3, dark) [µM] | also measured |
| --- | --- | --- | --- | --- | --- | --- | --- | --- | --- | --- | --- | --- | --- | --- | --- |
| COC(=O)c1cccc2[c]1[Ir-3]13([c]4c(C(=O)OC)cccc4-c4cccc[n+]41)([c]1n(CCCNC(=O)CCCC[C@@H]4SC[C@@H]5NC(=O)N[C@@H]54)cc[n+]1-c1cccc[n+]13)[n+]1ccccc1-2.F[P-](F)(F)(F)(F)F [I-d] | −0.10 ± 0.01 | around 370 nm | 373 (4260) nm (M^−1 · cm^−1) | 0.7 | 184 | – | – | – | – | – | – | – | – | – | GI50 (T24 bladder cancer cells; 8 h in the dark, blue light 458 nm 10 min, then dark up to 72 h, read-out: GI50 T24 Blue): 28.9 µM and 26.9 µM; SI (vs NIH-3T3) T24 Blue (T24 bladder cancer cells; blue light 458 nm): >3.7; SI (vs NIH-3T3) T24 Dark (T24 bladder cancer cells; dark): >3.8; Photosensitizing index (PI) T24 (T24 bladder cancer cells; dark vs blue light 458 nm): 1.0; GI50 (T24 bladder cancer cells; in the dark, 72 h, read-out: GI50 T24 Dark): 26.3 µM; GI50 ([5]; 8 h in the dark, blue light 458 nm 10 min, then dark up to 72 h, read-out: GI50 NIH-3T3 Blue): > 100 µM; GI50 ([5]; in the dark, 72 h, read-out: GI50 NIH-3T3 Dark): > 100 µM |
| F[P-](F)(F)(F)(F)F.O=C(NCCCn1cc[n+]2[c]1[Ir-3]13([c]4ccccc4-c4cccc[n+]41)([c]1ccccc1-c1cccc[n+]13)[n+]1ccccc1-2)[c-]1cccc1.[Fe+2].c1cc[cH-]c1 [IV-a] | 0.61 ± 0.07 | around 380 nm | 304 (sh) (25840), 381 (8080) nm (M^−1 · cm^−1) | 0.04 | 197 | 2.8 | 2.4 | 9.9 | 1.2 | 6.7 | 4.2 | 28.2 | – | – | – |
| F[P-](F)(F)(F)(F)F.O=C(NCCCn1cc[n+]2[c]1[Ir-3]13([c]4cc(F)cc(F)c4-c4cccc[n+]41)([c]1cc(F)cc(F)c1-c1cccc[n+]13)[n+]1ccccc1-2)[c-]1cccc1.[Fe+2].c1cc[cH-]c1 [IV-l] | – | – | 305 (sh) (21345), 356 (sh) (8645), 412 (3395) nm (M^−1 · cm^−1) | 0.01 | 191 | – | – | 4.8 | 3.2 | – | 5.4 | – | 1.14 ± 0.02 | – | – |
| Cc1ccc2[c](c1)[Ir-3]13([c]4cc(C)ccc4-c4cccc[n+]41)([c]1n(CCCNC(=O)[c-]4cccc4)cc[n+]1-c1cccc[n+]13)[n+]1ccccc1-2.F[P-](F)(F)(F)(F)F.[Fe+2].c1cc[cH-]c1 [IV-b] | 1.63 ± 0.02 | around 380 nm | 308 (sh) (27820), 379 (8620) nm (M^−1 · cm^−1) | 0.03 | 197 | – | – | 16.4 | 2.2 | 13.2 | 1.1 | 13.9 | – | 0.85 | SI (vs NIH-3T3) PC-3 Blue ([6]; blue light 458 nm): 33.8 |
| F[P-](F)(F)(F)(F)F.O=C(NCCCn1cc[n+]2[c]1[Ir-3]13([c]4ccccc4-c4ccc5ccccc5[n+]41)([c]1ccccc1-c1ccc4ccccc4[n+]13)[n+]1ccccc1-2)[c-]1cccc1.[Fe+2].c1cc[cH-]c1 [IV-g] | – | – | 334 (17135), 436 (4150) nm (M^−1 · cm^−1) | 0.02 | 214 | 13.7 | – | 7.9 | 5.8 | – | 3.3 | 11.8 | 1.42 ± 0.06 | 1.5 | λem ([3]; CH2Cl2, room temperature, λexc 365 nm or 470 nm): 579 nm |
| COC(=O)c1cccc2[c]1[Ir-3]13([c]4c(C(=O)OC)cccc4-c4cccc[n+]41)([c]1n(CCCNC(=O)[c-]4cccc4)cc[n+]1-c1cccc[n+]13)[n+]1ccccc1-2.F[P-](F)(F)(F)(F)F.[Fe+2].c1cc[cH-]c1 [IV-d] | 0.77 ± 0.01 | around 370 nm | 335 (sh) (9725), 372 (6540) nm (M^−1 · cm^−1) | 0.03 | 228 | 12.0 | 1.3 | 1.3 | 17.0 | – | 1.9 | – | – | 21.6 | – |
